Data: US6362237B1, “Compounds with progesterone-antagonistic and antiestrogenic action to be used together for female contraception” (Schering Aktiengesellschaft, priority 1994, dated 2002)

Key:
guinea pigs = assay: Inhibition of implantation in guinea pigs by estrogen antagonists; format: in vivo, guinea pig
[1] = tested on: normal guinea pigs with a normal cycle; assay: Test 3: receptivity inhibition in guinea pigs treated over 2 cycles, mating in the second cycle; format: in vivo, guinea pig; settings: for effectiveness of the single dose given separately: 0.5 mg daily s.c.; for effectiveness of the single dose given separately / effect of lower doses by themselves: alone; for effect of lower doses by themselves: <1.0 mg daily s.c.
Procedure: The tests were carried out on normal guinea pigs with a normal cycle over a treatment period of 2 cycles. Mating took place in the second cycle.
Doses of Onapristone: 0.1, 0.25, 0.5, 1.0 and 3.0 mg daily s.c.

SMILES | implantation in guinea pigs (guinea pigs) | effectiveness of the single dose given separately [1] | effect of lower doses by themselves [1] | pregnancies after treatment ([1]; onapristone alone, high doses, daily s.c.) | normal pregnancies ([1]; tamoxifen alone, 10.0 mg daily s.c., 2 cycles) [%] | inhibition of receptivity ([1]; tamoxifen alone, dosage range 0.1-10.0 mg/animal daily s.c.)
C[C@]12CC[C@@H]3c4ccc(O)cc4C[C@@H](CCCCCCCCC[S+]([O-])CCCC(F)(F)C(F)(F)F)[C@H]3[C@@H]1CC[C@@H]2O (stereo partly drawn) [ICI 182780, 7α-[9-[(4,4,5,5,5-pentafluorpentyl)sulfinyl]nonyl]estra-1,3,5(10)-trien-3,17β-diol] | inhibit implantation |  |  |  |  | 
CN(C)c1ccc([C@H]2C[C@]3(C)[C@@H](CC[C@]3(O)CCCO)[C@@H]3CCC4=CC(=O)CCC4=C32)cc1 [onapristone, 11β-[4-(dimethylamino)phenyl]-17α-hydroxy-17β-(3-hydroxypropyl)-13α-estra-4,9-dien-3one] |  | only marginally effective | no effect or a marginal effect | occasional pregnancies occurred |  | 
CC/C(=C(\c1ccccc1)c1ccc(OCCN(C)C)cc1)c1ccccc1 [tamoxifen, (Z)-N,N-dimethyl-2-[4-(1,2-diphenyl-1-butenyl)phenoxy]ethanamine] | inhibit implantation | only marginally effective | no effect or a marginal effect |  | 30 | no complete inhibition of receptivity could be achieved
